What was measured:
[1] = biological target: Sodium-dependent serotonin transporter (Rattus norvegicus, UniProt P31652); test: Binding affinity towards rat serotonin transporter (SERT)
[2] = biological target: Sodium-dependent dopamine transporter (Rattus norvegicus, UniProt P23977); test: Binding affinity towards dopamine transporter (DAT)
Sodium-dependent dopamine transporter, sequence (P23977 whole entry): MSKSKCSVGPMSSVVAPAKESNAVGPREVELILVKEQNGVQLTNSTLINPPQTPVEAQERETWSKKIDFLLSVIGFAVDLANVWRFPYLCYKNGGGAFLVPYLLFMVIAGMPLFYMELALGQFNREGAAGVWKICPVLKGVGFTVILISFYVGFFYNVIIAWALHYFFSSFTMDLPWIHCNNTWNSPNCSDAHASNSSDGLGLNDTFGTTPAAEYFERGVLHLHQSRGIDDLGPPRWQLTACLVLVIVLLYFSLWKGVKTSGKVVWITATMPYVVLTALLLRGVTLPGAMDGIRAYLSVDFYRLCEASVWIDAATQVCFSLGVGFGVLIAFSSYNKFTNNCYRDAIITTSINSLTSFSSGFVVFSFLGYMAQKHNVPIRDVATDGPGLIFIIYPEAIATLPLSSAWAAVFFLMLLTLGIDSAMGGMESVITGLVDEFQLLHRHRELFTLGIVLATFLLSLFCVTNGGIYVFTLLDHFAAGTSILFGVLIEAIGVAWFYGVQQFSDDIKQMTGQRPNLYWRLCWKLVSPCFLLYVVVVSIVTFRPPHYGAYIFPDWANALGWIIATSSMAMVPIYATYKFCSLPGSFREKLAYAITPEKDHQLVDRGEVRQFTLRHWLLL

Sodium-dependent serotonin transporter, sequence (P31652 whole entry): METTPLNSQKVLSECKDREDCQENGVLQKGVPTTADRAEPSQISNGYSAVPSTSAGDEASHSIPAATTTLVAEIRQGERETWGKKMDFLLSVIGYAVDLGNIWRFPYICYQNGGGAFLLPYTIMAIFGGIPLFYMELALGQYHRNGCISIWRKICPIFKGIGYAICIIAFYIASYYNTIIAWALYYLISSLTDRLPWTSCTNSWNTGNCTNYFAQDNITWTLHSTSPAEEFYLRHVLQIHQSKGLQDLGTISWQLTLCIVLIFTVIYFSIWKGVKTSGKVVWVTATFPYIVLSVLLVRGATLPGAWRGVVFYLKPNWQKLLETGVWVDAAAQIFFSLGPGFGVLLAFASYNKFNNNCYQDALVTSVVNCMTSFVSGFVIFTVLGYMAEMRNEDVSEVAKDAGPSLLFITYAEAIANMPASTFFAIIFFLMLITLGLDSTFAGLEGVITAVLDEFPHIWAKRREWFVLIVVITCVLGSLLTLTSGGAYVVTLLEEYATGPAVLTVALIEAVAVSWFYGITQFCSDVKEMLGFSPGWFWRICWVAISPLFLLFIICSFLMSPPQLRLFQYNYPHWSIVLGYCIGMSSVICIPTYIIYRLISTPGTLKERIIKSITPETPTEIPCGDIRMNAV

Structure (SMILES)	Ki [1] [µM]	Ki [2] [µM]
C1=C(CN2CCN(CCOC(c3ccccc3)c3ccccc3)CC2)CCc2ccccc21	1.36	0.038
O=C(CCN1CCN(CCOC(c2ccccc2)c2ccccc2)CC1)c1cccc(F)c1	1.36	0.26
O=C1CCCC1CN1CCN(CCOC(c2ccc(F)cc2)c2ccc(F)cc2)CC1 (configuration not stated)	0.97	0.084
O=C1CCCC1CN1CCN(CCOC(c2ccccc2)c2ccccc2)CC1 (configuration not stated)	5.7	–
OC(CCN1CCN(CCOC(c2ccc(F)cc2)c2ccc(F)cc2)CC1)c1ccc(Br)cc1 (configuration not stated)	0.05	0.0025
COc1ccc2c(c1)CCC(CN1CCN(CCOC(c3ccc(F)cc3)c3ccc(F)cc3)CC1)=C2	0.057	0.014
COc1ccc2c(c1)CC[C@@H](CN1CCN(CCOC(c3ccc(F)cc3)c3ccc(F)cc3)CC1)[C@H]2O	0.003	0.0073
OC1CCCCCC1CN1CCN(CCOC(c2ccc(F)cc2)c2ccc(F)cc2)CC1 (configuration not stated)	0.48	0.022
COc1ccc2c(c1)CCC(CN1CCN(CCOC(c3ccccc3)c3ccccc3)CC1)C2=O (configuration not stated)	0.07	0.078
O=C1CCCCC1CN1CCN(CCOC(c2ccc(F)cc2)c2ccc(F)cc2)CC1 (configuration not stated)	1.13	0.062
OC1CCCCCC1CN1CCN(CCOC(c2ccccc2)c2ccccc2)CC1 (configuration not stated)	3.9	0.21
O=C(CCN1CCN(CCOC(c2ccc(F)cc2)c2ccc(F)cc2)CC1)c1ccc(Br)cc1	0.48	0.037
COc1ccc2c(c1)CC[C@@H](CN1CCN(CCOC(c3ccccc3)c3ccccc3)CC1)[C@H]2O	0.1	0.032
OC1CCCC1CN1CCN(CCOC(c2ccccc2)c2ccccc2)CC1 (configuration not stated)	2.2	0.17
OC(CCN1CCN(CCOC(c2ccc(F)cc2)c2ccc(F)cc2)CC1)c1cccs1 (configuration not stated)	0.059	0.0072
O=C(CCN1CCN(CCOC(c2ccc(F)cc2)c2ccc(F)cc2)CC1)c1ccco1	0.35	0.072
O=C(CCN1CCN(CCOC(c2ccc(F)cc2)c2ccc(F)cc2)CC1)c1cccs1	0.11	0.084
O[C@H]1c2ccccc2CC[C@H]1CN1CCN(CCOC(c2ccc(F)cc2)c2ccc(F)cc2)CC1	0.03	0.0013
O=C1CCCCCC1CN1CCN(CCOC(c2ccc(F)cc2)c2ccc(F)cc2)CC1 (configuration not stated)	0.53	0.049
COc1ccc2c(c1)CCC(CN1CCN(CCOC(c3ccc(F)cc3)c3ccc(F)cc3)CC1)C2=O (configuration not stated)	0.003	0.022
O=C1c2ccccc2CCC1CN1CCN(CCOC(c2ccccc2)c2ccccc2)CC1 (configuration not stated)	1.05	0.39
OC1CCCCC1CN1CCN(CCOC(c2ccccc2)c2ccccc2)CC1 (configuration not stated)	3.3	0.21

Structure (SMILES)	Ki [1] [µM]	Ki [2] [µM]
OC(CCN1CCN(CCOC(c2ccccc2)c2ccccc2)CC1)c1ccc(Br)cc1 (configuration not stated)	0.34	0.0075
Fc1ccc(C(OCCN2CCN(CC3=Cc4ccccc4CC3)CC2)c2ccc(F)cc2)cc1	0.26	0.0064
O[C@@H]1c2ccccc2CC[C@H]1CN1CCN(CCOC(c2ccccc2)c2ccccc2)CC1	0.44	0.059
OC(CCN1CCN(CCOC(c2ccccc2)c2ccccc2)CC1)c1cccc(F)c1 (configuration not stated)	0.91	0.0041
O=C1c2ccccc2CCC1CN1CCN(CCOC(c2ccc(F)cc2)c2ccc(F)cc2)CC1 (configuration not stated)	0.11	0.057
OC(CCN1CCN(CCOC(c2ccccc2)c2ccccc2)CC1)c1cccs1 (configuration not stated)	0.69	0.015
O=C1CCCCCC1CN1CCN(CCOC(c2ccccc2)c2ccccc2)CC1 (configuration not stated)	4.1	0.27
OC(CCN1CCN(CCOC(c2ccc(F)cc2)c2ccc(F)cc2)CC1)c1cccc(F)c1 (configuration not stated)	0.053	0.0039
O[C@@H]1c2ccccc2CC[C@H]1CN1CCN(CCOC(c2ccc(F)cc2)c2ccc(F)cc2)CC1	0.032	0.018
OC(CCN1CCN(CCOC(c2ccc(F)cc2)c2ccc(F)cc2)CC1)c1ccco1 (configuration not stated)	0.15	0.01
COc1ccc2c(c1)CC[C@@H](CN1CCN(CCOC(c3ccccc3)c3ccccc3)CC1)[C@@H]2O	0.093	0.04
OC(CCN1CCN(CCOC(c2ccccc2)c2ccccc2)CC1)c1ccco1 (configuration not stated)	1.94	0.019
O[C@H]1c2ccccc2CC[C@H]1CN1CCN(CCOC(c2ccccc2)c2ccccc2)CC1	0.5	0.035
O=C(CCN1CCN(CCOC(c2ccccc2)c2ccccc2)CC1)c1ccc(Br)cc1	2.6	0.29
COc1ccc2c(c1)CC[C@@H](CN1CCN(CCOC(c3ccc(F)cc3)c3ccc(F)cc3)CC1)[C@@H]2O	0.003	0.018
COc1ccc2c(c1)CCC(CN1CCN(CCOC(c3ccccc3)c3ccccc3)CC1)=C2	0.53	0.039
O=C(CCN1CCN(CCOC(c2ccccc2)c2ccccc2)CC1)c1cccs1	1.24	0.19
OC1CCCC1CN1CCN(CCOC(c2ccc(F)cc2)c2ccc(F)cc2)CC1 (configuration not stated)	0.92	0.032
O=C(CCN1CCN(CCOC(c2ccc(F)cc2)c2ccc(F)cc2)CC1)c1cccc(F)c1	0.22	0.089
O=C1CCCCC1CN1CCN(CCOC(c2ccccc2)c2ccccc2)CC1 (configuration not stated)	3.3	0.25
OC1CCCCC1CN1CCN(CCOC(c2ccc(F)cc2)c2ccc(F)cc2)CC1 (configuration not stated)	0.58	0.037
O=C(CCN1CCN(CCOC(c2ccccc2)c2ccccc2)CC1)c1ccco1	3.3	0.3

From ChEMBL document CHEMBL1136827, “Further exploration of 1-[2-[Bis-(4-fluorophenyl)methoxy]ethyl]piperazine (GBR 12909): role of N-aromatic, N-heteroaromatic, and 3-oxygenated N-phenylpropyl substituents on affinity for the dopamine and serotonin transporter” (Bioorg Med Chem Lett, 2003)
